Assays:
[1] = pH dependent hydrolysis of the hydrazone bond (MALDI-TOF-MS); type: physicochemical; conditions: HCl solution at pH 3
HeLa cells (EGFR+) = assay: Cell viability (MTS) assay, HeLa cells; type: cell-based, human; conditions: co-administered with SO1861 + dianthin-EGF, 500 nM PAMAM (native, thiolated, PEGylated) or chloroquine, 667 nM dendron
Description: (§1) After treatment the cells were incubated for 72 hr at 37° C. before the cell viability was determined by a MTS-assay, performed according to the manufacturer's instruction (CellTiter 96@AQueous One Solution Cell Proliferation Assay, Promega). Briefly, the MTS solution was diluted 20× in DMEM without phenol red (PAN-Biotech GmbH) supplemented with 10% FBS (PAN-Biotech GmbH). The cells were washed once with 200 μL PBS per well, after which 100 μL diluted MTS solution was added per well. The plate was incubated for approximately 20-30 minutes at 37° C. Subsequently, the optical density at 492 nm was measured on a Thermo Scientific Multiskan FC plate reader (Thermo Scientific). For quantification the background signal of ‘medium only’ wells was subtracted from all other wells, before the ratio of untreated/treated cells was calculated, by dividing the background corrected signal of untreated wells over the background corrected signal of the treated wells.

[2] = tested on: SK-BR-3, JIMT-1, MDA-MB-468, A431, CaSki, HeLa, A2058; assay: Control treatments, relative cell viability on various cancer cell lines; type: cell-based, human; conditions: toxins up to 100.000 pM
Description: as §1

CC(=O)OC1C(C)OC(OC2C(C)OC(OC(=O)[C@]34CCC(C)(C)CC3C3=CCC5[C@@]6(C)CC[C@H](OC7OC(C(=O)O)C(O)C(OC8OCC(O)C(O)C8O)C7OC7OC(CO)C(O)C(O)C7O)[C@@](C)(/C=N/NC(=O)CCCCCN7C(=O)C=CC7=O)C6CC[C@@]5(C)[C@]3(C)C[C@H]4O)C(OC3OC(C)C(OC4OCC(O)C(OC5OC(CO)C(O)C(O)C5O)C4O)C(O)C3O)C2O)C(O)C1OC1OCC(O)C(O)C1O (stereo partly drawn) [SO1861-EMCH]
hydrolysis of the hydrazone bond [1]: the hydrazone bond is responsive towards hydrolysis and gets cleaved

CCN(CC)CCCC(C)Nc1ccnc2cc(Cl)ccc12 (stereo not drawn) [chloroquine]
effect on SO1861-mediated endosomal escape of the targeted toxin and cell killing (HeLa cells (EGFR+)): inhibit the SO1861-mediated endosomal escape

saporin
influence on cell viability [2]: do not or hardly have any influence on cell viability

From US20250195682A1, “IMPROVED CELL-TARGETING BINDING MOLECULE” (priority 2018, published 2025)
